According to US6355616B1, “Derivative compounds derived from or based on bactericidal/permeability-increasing protein” (priority 1999, dated 2002):

Test system: MDCK cells
Experiment: In vitro oral absorption screening, transepithelial transport across MDCK cell monolayers
Assay type: in vitro ADME, canine
Protocol: For these experiments, peptide-based constructs are screened for potential oral absorption in in vitro screening assays using MDCK and/or CACO-2 cells. Briefly, cultured monolayers of Madin-Derby canine kidney epithelial (MDCK) cells (ATCC Accession No. CCL-34) and/or CACO-2 (Human colon carcinoma) cells [Audus, K. L., et al. Phar. Res., 7:435-451 (1990) are grown upon collagen-coated, permeable-filter supports (Becton Dickinson, Mountain View, Calif.). The cells are grown to confluency and allowed to differentiate (e.g., about 3 days for MDCK cells or about 21 days for CACO-2 cells). The integrity of the monolayers is determined by measuring the transepithelial resistance. The cells are incubated with a peptide-based construct on the apical side for 2.5 hours in MDCK or CACO-2 screening. The transepithelial transport of the construct is measured by quantitative HPLC analysis of the incubation media on the basolateral side of the cells (forward transport). Radiolabelled mannitol and/or cortisone are used as positive controls. In addition, the efflux of the construct is measured by quantitative HLPC analysis of the incubation media on the apical side of the cells. This follows incubation of the cells with construct on the basolateral side for 2.5 hours. […]
Following the days post seeding, the cells are ready for transport experiments. […]
Apical control wells containing 1.5 mL TM with tritiated mannitol (^3H-mannitol, 1 μCi/mL; Dupont NEN Research Products, #NET-101, Boston, Mass.) are analyzed separately for counts per minute (cpm) of tritium to test the integrity of the MDCK cell monolayers. […]

## CC[C@@H](C)[C@@H](NC(=O)[C@@H](CC(C)C)NC(=O)[C@@H](Cc1c[nH]c2ccccc12)NC(=O)[C@@H](CCCCN)NC(=O)c1ccccc1O)C(=O)N[C@H](CCC(N)=O)C(=O)N[C@H](CC(C)C)C(=O)N[C@H](Cc1ccccc1)C(=O)N[C@H](Cc1c[nH]cn1)C(=O)N[C@H](CCCCN)C(=O)N[C@H](CCCCN)C(N)=O [XMP.560]
  cell absorption in MDCK cell screening assays: 2%
Apical to basolateral, 2.5 hours, donor ~100 μg/mL
  In Vitro Oral Availablity Screening (%) Forward: ≧2%
Basolateral to apical, 2.5 hours, donor ~100 μg/mL
  In Vitro Oral Availablity Screening (%) Efflux: ≧2%
